Reference: EP0607129B1, “METHYLPIPERAZINOAZEPINE DERIVATIVES, THEIR PREPARATION AND USE” ("THERABEL RESEARCH SA/NV", priority 1991, dated 1993)

Assays:
récepteurs muscariniques = tested on: récepteurs muscariniques; set-up: species or system rat CFY; conditions: 1,5 nM (³H) QNB; rat brain homogenate without cerebellum; 25°C, 60 minutes; non-specific binding with atropine 10⁻⁵M; test concentration not given
[1] = Catalepsy test (extrapyramidal side effects); assay type: in vivo; conditions: for catalepsie pour des doses supérieures à: dose above which catalepsy is seen; for léger / faible effet cataleptique à partir de: dose from which a slight (léger, faible) cataleptic effect is seen
From the text: Voir notamment GRAY W.D., OSTERBERG A.C., RAUH C.E., Arch. Int. Pharmacodyn. 134, 198, 1961 et COSTALL B., OLLEY J.E., Neuropharmacology 10, 297, 1971.
Ce test est représentatif des effets extrapyramidaux présents dans de nombreux neuroleptiques (effet secondaire non souhaitable). Les composés de l'invention provoquent très peu de catalepsie et paraissent donc dénués de cet effet secondaire non souhaitable.

apomorphine = test: In vivo apomorphine antagonism test
[2] = graded + to +++++, 20 mg/kg for the compounds

## CN1CCN(C2=Nc3cnccc3Sc3ccccc32)CC1 [Exemple 18, 10-(4-méthylpipérazin-1-yl)pyrido(4,3-b)benzo-1,4-thiazépine]
récepteurs muscariniques
  Inhibition, % (binding de ³H QNB): 57,61%

## CN1CCN(C2=Nc3ccccc3Nc3ccncc32)CC1 [Exemple 1, 11-(4-méthylpipérazin-1-yl)-5H-pyrido(4,3-b)benzo-1,5-diazépine]
[1]
  catalepsie pour des doses supérieures à: > 40 mg/kg
récepteurs muscariniques
  Inhibition, % (binding de ³H QNB): 4,48%

## CN1CCN(C2=Nc3cccnc3Nc3cc(Cl)ccc32)CC1 [Exemple 12, 9-chloro-6-(4-méthylpipérazin-1-yl)-11H-pyrido(2,3-b)benzo-1,4-diazépine]
apomorphine; [2]
  Test d'antagonisme a l'apomorphine: intensité de l'activité: +

## O=C(CCCN1CCC(O)(c2ccc(Cl)cc2)CC1)c1ccc(F)cc1 [Halopéridol, reference compound]
apomorphine; halopéridol at 0,63 mg/kg
  Test d'antagonisme a l'apomorphine: intensité de l'activité: +++++

## Cc1ccc2c(c1)C(N1CCN(C)CC1)=Nc1cccnc1N2 [Exemple 11, 6-(4-méthylpipérazin-1-yl)-8-méthyl-11H-pyrido(2,3-b)benzo-1,4-diazépine]
récepteurs muscariniques
  Inhibition, % (binding de ³H QNB): 67,3%

## CN1CCN(C2=Nc3cccnc3N(C=O)c3ccccc32)CC1 [Exemple 17, 11-formyl-6-(4-méthylpipérazin-1-yl)-11H-pyrido(2,3-b)benzo-1,4-diazépine]
récepteurs muscariniques
  Inhibition, % (binding de ³H QNB): 43,38%

## CN1CCN(C2=Nc3cccnc3Nc3ccc(Cl)cc32)CC1 [Exemple 10, 8-chloro-6-(4-méthylpipérazin-1-yl)-11H-pyrido(2,3-b)benzo-1,4-diazépine]
récepteurs muscariniques
  Inhibition, % (binding de ³H QNB): 62,08%

## CN1CCN(C2=Nc3ccccc3Oc3ncccc32)CC1.O=C(O)/C=C\C(=O)O [Exemple 4, Maléatede 5-(4-méthylpipérazin-1-yl)pyrido(2,3-b)benzo-1,5-oxazépine]
[1]
  léger / faible effet cataleptique à partir de: ≥ 20 mg/kg

## CN1CCN(C2=Nc3cc(Cl)ccc3Oc3ncccc32)CC1.O=C(O)/C=C/C(=O)O [Exemple 5, Fumaratede 8-chloro-5-(4-méthylpipérazin-1-yl)pyrido(2,3-b)benzo-1,5-oxazépine]
apomorphine; [2]
  Test d'antagonisme a l'apomorphine: intensité de l'activité: +

## CN1CCN(C2=Nc3cccnc3Nc3ccc(F)cc32)CC1 [Exemple 13, 8-fluoro-6-(4-méthylpipérazin-1-yl)-11H-pyrido(2,3-b)benzo-1,4-diazépine]
apomorphine; [2]
  Test d'antagonisme a l'apomorphine: intensité de l'activité: +

## CN1CCN(C2=Nc3cc(Cl)ccc3Nc3ccccc32)CC1 [Clozapine, reference compound]
apomorphine; clozapine at 20 mg/g (so in the source)
  Test d'antagonisme a l'apomorphine: intensité de l'activité: +
[1]
  léger / faible effet cataleptique à partir de: ≥ 20 mg/kg

## CN1CCN(C2=Nc3ccccc3Sc3ccc(Cl)cc32)CC1 [Clothiapine, reference compound]
récepteurs muscariniques
  Inhibition, % (binding de ³H QNB): 38,05%

## CN1CCN(C2=Nc3cccnc3Oc3ccccc32)CC1.O=C(O)/C=C/C(=O)O [Exemple 7, Fumaratede 6-(4-méthylpipérazin-1-yl)pyrido(2,3-b)benzo-1,4-oxazépine]
apomorphine; [2]
  Test d'antagonisme a l'apomorphine: intensité de l'activité: +

## CN1CCN(C2=Nc3cccnc3Sc3ccc(Cl)cc32)CC1.O=C(O)/C=C/C(=O)O [Exemple 3, Fumaratede 8-chloro-6-(4-méthylpipérazin-1-yl)pyrido(2,3-b)benzo-1,4-thiazépine]
[1]
  catalepsie pour des doses supérieures à: > 40 mg/kg
